Series [1] relates to HBV replication (HBV plus-polarity DNA strand). Briefly: HBV replication inhibition, strand preferential qPCR in hepDES19 cells. The format is cell-based, hepatitis B virus. As to conditions: for EC50: 72 h exposure, HBV plus-polarity strand suppression, highest concentration tested 100 µM, mean ± SD, read-out: HepDES19 EC50. As to the method:
HBV replication inhibition was measured in hepDES19 cells following 72 h compound exposure without compound replenishment. EC50 values were determined by HBV plus-polarity strand suppression using a strand preferential qPCR assay, as described previously ([28]). Three or more replicate values were obtained on different days.

The nature of series [2]: Solubility limit, turbidimetric assay. The format is physicochemical. As to conditions: upper limit 200 µM. As to the method:
Solubility limits were determined by a turbidimetric assay, as described ([27]), with the solubility limit being defined as the compound concentration where light scattering began to rise. Two or more replicate assays were performed for each compound at each pH on different days.

Series [3] can be described thus: Parallel artificial membrane permeability assay (PAMPA). The format is in vitro ADME. The method, then: Compound Papp values were determined by normalizing the experimental compound absorbance to the compounds’ absorbances at equilibrium, membrane porosity, buffer volume, and time (s). Two or more replicate assays were obtained on separate days for each pH.
The next series concerns the target T1, CYP2D6 (Homo sapiens, UniProt P10635).
T1 construct: purchased Thermo Fisher Vivid 2D6 EOMCC Blue
Briefly: Cytochrome P450 inhibition, Vivid 2D6 EOMCC Blue kit. The format is in vitro ADME. Particulars: dose-response 50 µM to 3 nM; mean ± SD. The method, then:
(§1) Compound inhibition of Cytochrome P (CYP) 3A4, 2C9, and 2D6 was determined using Vivid CYP450 screening kits (Thermo Fisher) according to the manufacturer’s instructions, as described previously ([27]). The kits employed were: Vivid 3A4 DBOMF Green, 2C9 BOMF Green, and 2D6 EOMCC Blue. Reactions were initiated by addition of the fluorophore-conjugated substrates with Vivid NADP^+ and were conducted at 37°C using either a Biotek Synergy HTX multi-mode plate reader with 485/20 nm excitation and 520/20 nm emission filters (green-fluorescent substrate), or a Tecan Spark plate reader with monochromator settings at 415/20 nm excitation and 460/20 nm emission (blue-fluorescent substrate) defined by the Center Wavelength/band-pass values. Substrate cleavage was detected every 60 s.
Compounds were initially screened against each enzyme at 10 µM and maximum rates of fluorescence in RFU were calculated using the Biotek Gen5 v3.11 software. Percent inhibition of experimental compound reactions was normalized to the rate to DMSO vehicle reactions. Positive controls used were: CYP3A4—ketoconazole (Sigma Aldrich), CYP2C9—sulfaphenazole (Cayman Chemical), and CYP2D6—quinidine (Fisher Scientific). Dose-response curves were generated for compounds that inhibited an enzyme by ≥50% using titrated concentrations of compound (50 µM to 3 nM) or 1% DMSO. IC50 values were determined using the four-parameter log[inhibitor] versus response algorithm in GraphPad Prism. Qualitative screens and dose-response curves were each performed in triplicate on different days.

For another series, the system named is HepDES19 cells. Particulars: read-out: HepDES19 CC50; 72 h, MTS; highest concentration tested 100 µM; mean ± SD.
For another series, the target named is T2, CYP3A4 (Homo sapiens, UniProt P08684).
T2 construct: purchased Thermo Fisher Vivid 3A4 DBOMF Green
Briefly: Cytochrome P450 inhibition, Vivid 3A4 DBOMF Green kit. The class given is in vitro ADME. Particulars: 10 µM compound. The method, then:
as §1
Compounds were initially screened against each enzyme at 10 µM and maximum rates of fluorescence in RFU were calculated using the Biotek Gen5 v3.11 software. Percent inhibition of experimental compound reactions was normalized to the rate to DMSO vehicle reactions. Positive controls used were: CYP3A4—ketoconazole (Sigma Aldrich), CYP2C9—sulfaphenazole (Cayman Chemical), and CYP2D6—quinidine (Fisher Scientific). […] IC50 values were determined using the four-parameter log[inhibitor] versus response algorithm in GraphPad Prism. […]

A short description of a further series: Microsome stability. Particulars: human, microsomes. The format is in vitro ADME, human.
Another series relates to plasma proteins. Briefly: Plasma protein binding, rapid equilibrium dialysis. The class given is in vitro ADME, bovine. Particulars: 10 µM compound, DMEM-F12 with 10% FBS (0.25 mg/mL BSA), 4 h, 37°C. As to the method:
Plasma protein binding was performed using the Pierce rapid equilibrium dialysis device (Thermo Fisher) per the manufacturer’s instructions, as described ([27]). Briefly, the sample wells contained DMEM-F12 supplemented with 10% FBS spiked with 10 µM compound, and the buffer wells contained phosphate-buffered saline (PBS). The plate was incubated for 4 h at 37°C with shaking, after which 50 µL was retrieved from the buffer and sample wells and added to ice-cold acetonitrile and the internal standard described above. Samples were matrix-matched with PBS supplemented with 10% FBS or PBS alone, respectively, and centrifuged at 4,000 × g for 5 min to pellet plasma proteins. The supernatants were analyzed by LCMS/MS and percent compound bound was determined, as described previously ([27]).

The mark [4] stands for this setting: pH 5 (fed simulated intestinal fluid).
The mark [5] stands for this setting: pH 6.5 (fasted simulated intestinal fluid).

T1 sequence (P10635 whole entry): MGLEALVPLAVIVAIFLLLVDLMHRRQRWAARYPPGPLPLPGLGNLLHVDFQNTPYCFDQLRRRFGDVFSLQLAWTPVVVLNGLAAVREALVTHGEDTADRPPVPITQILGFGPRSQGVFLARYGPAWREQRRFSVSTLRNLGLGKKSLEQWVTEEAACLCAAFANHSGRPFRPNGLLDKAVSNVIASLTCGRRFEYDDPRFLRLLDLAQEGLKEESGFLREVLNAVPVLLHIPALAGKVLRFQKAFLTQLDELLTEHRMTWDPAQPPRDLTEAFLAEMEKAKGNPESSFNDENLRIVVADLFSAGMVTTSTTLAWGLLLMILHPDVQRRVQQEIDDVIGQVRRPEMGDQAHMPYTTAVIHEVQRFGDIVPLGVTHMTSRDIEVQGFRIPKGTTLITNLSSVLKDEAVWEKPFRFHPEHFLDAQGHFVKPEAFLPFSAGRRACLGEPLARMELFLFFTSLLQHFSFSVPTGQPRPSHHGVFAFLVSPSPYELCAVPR
T2 sequence (P08684 whole entry): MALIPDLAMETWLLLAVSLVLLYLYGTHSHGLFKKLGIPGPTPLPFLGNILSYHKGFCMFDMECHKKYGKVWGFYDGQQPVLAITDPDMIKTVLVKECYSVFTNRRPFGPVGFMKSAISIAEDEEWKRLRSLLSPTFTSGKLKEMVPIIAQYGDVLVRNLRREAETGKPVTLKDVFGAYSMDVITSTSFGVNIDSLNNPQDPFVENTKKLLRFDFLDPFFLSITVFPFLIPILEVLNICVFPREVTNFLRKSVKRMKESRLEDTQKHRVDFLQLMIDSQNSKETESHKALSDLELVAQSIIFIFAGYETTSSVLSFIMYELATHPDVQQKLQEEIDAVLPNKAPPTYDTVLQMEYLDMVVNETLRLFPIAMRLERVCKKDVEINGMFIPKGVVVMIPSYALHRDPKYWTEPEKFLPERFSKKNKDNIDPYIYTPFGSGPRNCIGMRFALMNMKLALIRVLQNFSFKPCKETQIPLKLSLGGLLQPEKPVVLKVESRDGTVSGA

In the case of `CC(=NOCc1cccc(Cl)c1)c1c(C)cc(=O)n(O)c1O` [Compound 1719], the “HepDES19 SI (CC50/EC50)” value in series [1] is 34.5. Also, the EC50 in series [1] came to 1.35 ± 1.03 µM. In addition, the “Average Sol (solubility limit)” value in series [2] (setting [4]) was 150 µM; in series [2] (setting [5]), over 200 µM; in series [2] (pH 7.4 (DMEM-F12 with 10% FBS)), over 200 µM. Moreover, the “Sol 1 (solubility limit)” value in series [2] (pH 5, replicate 1) was 100 µM; in series [2] (pH 6.5, replicate 1) it was over 200 µM; in series [2] (pH 7.4, replicate 1), over 200 µM. Moreover, the “Sol 2 (solubility limit)” value in series [2] (pH 5, replicate 2) was over 200 µM; in series [2] (pH 6.5, replicate 2) it was over 200 µM; in series [2] (pH 7.4, replicate 2), over 200 µM. Moreover, the “Avg Papp (PAMPA)” value in series [3] (FeSSIF pH 5) was found to be 72.6 ×10⁻⁶ cm/s; in series [3] (pH 7.4), 2.9 ×10⁻⁶ cm/s. For the same compound, the “Interpretation (PAMPA Papp)” value in series [3] (FeSSIF pH 5) and in series [3] (pH 7.4) was “H (H: Papp > 1*10-6)” throughout. The “Papp 1 (PAMPA)” value in series [3] (FeSSIF pH 5, replicate 1) amounted to 48.6 ×10⁻⁶ cm/s; in series [3] (pH 7.4, replicate 1), 2.82 ×10⁻⁶ cm/s. Moreover, the “Papp 2 (PAMPA)” value in series [3] (FeSSIF pH 5, replicate 2) was found to be 78.8 ×10⁻⁶ cm/s; in series [3] (pH 7.4, replicate 2) it was 2.99 ×10⁻⁶ cm/s. Moreover, in series [3] (FeSSIF pH 5, replicate 3), the “Papp 3 (PAMPA)” value was found to be 90.3 ×10⁻⁶ cm/s. At CYP2D6, the IC50 is 11.2 ± 3.79 µM. Besides, the 50% cytotoxic concentration (CC50) in the series with HepDES19 cells turned out to be 56.9 ± 31.1 µM.
On to `CC(=NOCc1ccc(OCc2ccc(C(C)(C)C)cc2)cc1)c1c(C)cc(=O)n(O)c1O` [Compound 1808], for which the “HepDES19 SI (CC50/EC50)” value in series [1] stood at 6.24. In series [1], the EC50 was determined as 6 ± 0.17 µM. In addition, the results for the “Average Sol (solubility limit)” value in series [2] (setting [4]), in series [2] (setting [5]) and in series [2] (pH 7.4 (DMEM-F12 with 10% FBS)) were over 200 µM, over 200 µM and 100 µM, respectively. The “Sol 1 (solubility limit)” value in series [2] (pH 5, replicate 1) is over 200 µM; in series [2] (pH 6.5, replicate 1) it was over 200 µM; in series [2] (pH 7.4, replicate 1), 100 µM. The “Sol 2 (solubility limit)” value in series [2] (pH 5, replicate 2) is given as over 200 µM; in series [2] (pH 6.5, replicate 2), over 200 µM; in series [2] (pH 7.4, replicate 2), 100 µM. Further, the “Interpretation (PAMPA Papp)” value in series [3] (FeSSIF pH 5) and in series [3] (pH 7.4) was “H (H: Papp > 1*10-6)” each time. Moreover, the “Papp 1 (PAMPA)” value was found to be 32.2 ×10⁻⁶ cm/s in series [3] (FeSSIF pH 5, replicate 1) and 3.7 ×10⁻⁶ cm/s in series [3] (pH 7.4, replicate 1). For the same compound, the “Papp 2 (PAMPA)” value in series [3] (FeSSIF pH 5, replicate 2) came out at 9.19 ×10⁻⁶ cm/s; in series [3] (pH 7.4, replicate 2), 2.6 ×10⁻⁶ cm/s. The “Papp 3 (PAMPA)” value was found to be 81.4 ×10⁻⁶ cm/s in series [3] (FeSSIF pH 5, replicate 3) and 2.6 ×10⁻⁶ cm/s in series [3] (pH 7.4, replicate 3). In series [3] (FeSSIF pH 5, replicate 4), the “Papp 4 (PAMPA)” value is 95.8 ×10⁻⁶ cm/s. In addition, the “Avg Papp (PAMPA)” value in series [3] (pH 7.4) worked out at 2.97 ×10⁻⁶ cm/s. For the same compound, on CYP3A4, the “Percent inhibition of CYP3A4” value was ~ 42%. Also, in “Microsome stability”, the “Clearance (intrinsic clearance, Clint)” value is listed as 10.1 µL/min/mg. For the same compound, the Half-life in “Microsome stability” is given as over 30 min. In addition, the CC50 with HepDES19 cells amounted to 38.2 ± 10.2 µM.
In the case of `Nc1ccn([C@@H]2CS[C@H](CO)O2)c(=O)n1` [Lamivudine, lamivudine, reference compound], the Percent bound with plasma proteins was determined as 9.70 ± 11.3%; with plasma proteins (listed as lamivudine), 10%.

Values taken from paper PMC11784145, “Efficacy and in vitro pharmacological assessment of novel N-hydroxypyridinediones as hepatitis B virus ribonuclease H inhibitors” (Antimicrobial Agents and Chemotherapy, 2024).
